Results as given in PubChem BioAssay AID256 (DTP/NCI, 2004).
Several values for one entry are separate records, joined by “and”; a condition that tells them apart may be missing. Identical values can stand only once. Toxic doses and inconclusive results are not listed. Rule for the calls: active = survival T/C of 150% or more; inactive = T/C below 125% in these data.

Test system: CD2F1 mice, L1210 leukemia ip, survival T/C
Test: NCI In Vivo Anticancer Drug Screen. Data for tumor model L1210 Leukemia (intraperitoneal) in CD2F1 (CDF1) mice
Settings: higher = longer survival
In short: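 Read-out first: treated-group measurement over vehicle-control measurement, expressed as a ratio. Animals bore a transplanted tumor line and were dosed with compound or vehicle.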

[1] = endpoint: mean survival time, dose: 25.0 mg/kg/injection, schedule: Q01DX009 (ip), vehicle: saline with Tween-80
[2] = endpoint: mean survival time, dose: 50.0 mg/kg/injection, schedule: Q01DX009 (ip), vehicle: saline with Tween-80
[3] = endpoint: mean survival time, dose: 100.0 mg/kg/injection, schedule: Q04DX003 (ip), vehicle: saline with Tween-80
[4] = endpoint: mean survival time, dose: 200.0 mg/kg/injection, schedule: Q04DX003 (ip), vehicle: saline with Tween-80
[5] = endpoint: mean survival time, dose: 400.0 mg/kg/injection, schedule: Q04DX003 (ip), vehicle: saline with Tween-80
[6] = endpoint: mean survival time, dose: 100.0 mg/kg/injection, schedule: Q01DX009 (ip), vehicle: saline with Tween-80
[7] = endpoint: mean survival time, dose: 200.0 mg/kg/injection, schedule: Q01DX009 (ip), vehicle: saline with Tween-80
[8] = endpoint: mean survival time, dose: 100.0 mg/kg/injection, schedule: Q04DX002 (ip), vehicle: saline with Tween-80
[9] = endpoint: mean survival time, dose: 75.0 mg/kg/injection, schedule: Q01DX001 (ip), vehicle: saline
[10] = endpoint: mean survival time, dose: 150.0 mg/kg/injection, schedule: Q01DX001 (ip), vehicle: saline
[11] = endpoint: mean survival time, dose: 200.0 mg/kg/injection, schedule: Q04DX003 (ip), vehicle: saline

Measured: T/C

O=S=NNc1ccccc1
inactive: endpoint: mean survival time, dose: 12.5 mg/kg/injection, schedule: Q01DX009 (ip), vehicle: saline with Tween-80 108 % of control | [1] 102 % of control | [2] 88 % of control and 90 % of control | [3] 95 % of control | [4] 89 % of control

Cc1c2c(cc3c1CCC1(C)C3CCC1C(C)CCC(C)C(C)C)CCCC2 (stereo unspecified)
inactive: [3] 94 % of control | [4] 94 % of control | [5] 89 % of control

CCCC/C=C/C1CCCCO1 (stereo unspecified)
inactive: [2] 94 % of control | [6] 97 % of control | [7] 105 % of control

O=C(O)CC(=O)O.[NH-]CC[NH-].[Pt+2]
inactive: endpoint: mean survival time, dose: 25.0 mg/kg/injection, schedule: Q01DX009 (ip), vehicle: dextrose 100 % of control | endpoint: median survival time, dose: 40.0 mg/kg/injection, schedule: Q01DX009 (ip), vehicle: saline with Tween-80 89 % of control | endpoint: median survival time, dose: 50.0 mg/kg/injection, schedule: Q01DX001 (ip), vehicle: saline 111 % of control

COc1cc(/C=N/NC(=O)CNC(=O)NCc2ccco2)ccc1O
inactive: [2] 92 % of control | [6] 92 % of control | [7] 92 % of control

COc1ccccc1NC(=O)Oc1ccc(Cl)cc1C
inactive: [8] 103 % of control | endpoint: mean survival time, dose: 200.0 mg/kg/injection, schedule: Q04DX002 (ip), vehicle: saline with Tween-80 100 % of control | endpoint: mean survival time, dose: 400.0 mg/kg/injection, schedule: Q04DX002 (ip), vehicle: saline with Tween-80 95 % of control

COc1cccc2c1C(=O)c1c(O)c3c(c(O)c1C2=O)C[C@@](O)(C(=O)COC(=O)Cc1cccc2ccccc12)C[C@@H]3OC1CC(N)C(O)C(C)O1 (stereo partly specified)
inactive: endpoint: mean survival time, dose: 0.5 mg/kg/injection, schedule: Q01DX009 (ip), vehicle: saline with Tween-80 118 % of control | endpoint: mean survival time, dose: 1.0 mg/kg/injection, schedule: Q01DX001 (ip), vehicle: other 116 % of control | endpoint: mean survival time, dose: 2.5 mg/kg/injection, schedule: Q01DX001 (ip), vehicle: saline with Tween-80 117 % of control | endpoint: mean survival time, dose: 8.0 mg/kg/injection, schedule: Q01DX009 (ip), vehicle: saline with Tween-80 122 % of control | endpoint: mean survival time, dose: 16.0 mg/kg/injection, schedule: Q01DX009 (ip), vehicle: saline with Tween-80 88 % of control | endpoint: mean survival time, dose: 32.0 mg/kg/injection, schedule: Q01DX001 (ip), vehicle: other 90 % of control
active: endpoint: mean survival time, dose: 5.0 mg/kg/injection, schedule: Q04DX003 (ip), vehicle: other 152 % of control | endpoint: mean survival time, dose: 10.0 mg/kg/injection, schedule: Q04DX003 (ip), vehicle: saline with Tween-80 151 % of control

C/C=C1\CC2C=CC1C2 (stereo unspecified) (tested in a mixture with another compound)
inactive: endpoint: mean survival time, dose: 80.5 mg/kg/injection, schedule: Q01DX009 (ip), vehicle: saline with Tween-80 98 % of control | endpoint: mean survival time, dose: 161.0 mg/kg/injection, schedule: Q01DX009 (ip), vehicle: saline with Tween-80 87 % of control

O=S(=O)(O)O.[Zr]
inactive: [9] 97 % of control | [10] 91 % of control

CCCCCCCCCCCCCCCCCC(=O)NNCCO
inactive: [6] 89 % of control | [3] 94 % of control | [7] 89 % of control | [4] 93 % of control | [5] 91 % of control

Nc1nc2c(ncn2C2OC(CO)C(O)C2O)c(=O)[nH]1 (stereo unspecified)
inactive: [1] 98 % of control and 105 % of control | [2] 101 % of control and 103 % of control | [6] 98 % of control and 102 % of control | [7] 95 % of control and 104 % of control | endpoint: mean survival time, dose: 400.0 mg/kg/injection, schedule: Q01DX009 (ip), vehicle: saline with Tween-80 101 % of control and 104 % of control | endpoint: mean survival time, dose: 800.0 mg/kg/injection, schedule: Q01DX009 (ip), vehicle: saline with Tween-80 98 % of control and 110 % of control | endpoint: median survival time, dose: 1000.0 mg/kg/injection, schedule: Q01DX009 (ip), vehicle: saline with Tween-80 106 % of control | endpoint: median survival time, dose: 1500.0 mg/kg/injection, schedule: Q01DX009 (ip), vehicle: saline with Tween-80 89 % of control | endpoint: median survival time, dose: 2000.0 mg/kg/injection, schedule: Q01DX009 (ip), vehicle: saline with Tween-80 91 % of control and 108 % of control

NC(=O)C1C=CCC1 (stereo unspecified)
inactive: [1] 104 % of control | endpoint: mean survival time, dose: 25.0 mg/kg/injection, schedule: Q04DX002 (ip), vehicle: saline with Tween-80 95 % of control | [2] 101 % of control | endpoint: mean survival time, dose: 50.0 mg/kg/injection, schedule: Q04DX002 (ip), vehicle: saline with Tween-80 100 % of control | [6] 101 % of control | [8] 91 % of control

CN(C)c1ccc(/C=N/NC(=O)CNC(=O)Nc2cccc([N+](=O)[O-])c2)c(Cl)c1
inactive: [2] 88 % of control

CCN(C(=O)C(F)(F)F)C(C)(C)C(SSSC(c1ccc(Cl)cc1)C(C)(C)N(CC)C(=O)C(F)(F)F)c1ccc(Cl)cc1 (stereo unspecified)
inactive: endpoint: mean survival time, dose: 100.0 mg/kg/injection, schedule: Q04DX003 (ip), vehicle: saline 103 % of control | [11] 105 % of control | endpoint: mean survival time, dose: 400.0 mg/kg/injection, schedule: Q04DX003 (ip), vehicle: saline 86 % of control

NC(=S)N/N=C/c1c(O)ccc2ccccc12
inactive: endpoint: mean survival time, dose: 12.5 mg/kg/injection, schedule: Q04DX003 (ip), vehicle: saline with Tween-80 98 % of control | endpoint: mean survival time, dose: 25.0 mg/kg/injection, schedule: Q04DX003 (ip), vehicle: saline with Tween-80 95 % of control | endpoint: mean survival time, dose: 50.0 mg/kg/injection, schedule: Q04DX003 (ip), vehicle: saline with Tween-80 95 % of control

NC(=O)NO
inactive: endpoint: mean survival time, dose: 4.0 mg/kg/injection, schedule: Q03HX024 (ip), vehicle: saline 95 % of control | endpoint: mean survival time, dose: 8.0 mg/kg/injection, schedule: Q03HX024 (ip), vehicle: saline 97 % of control | endpoint: mean survival time, dose: 62.0 mg/kg/injection, schedule: Q03HX024 (ip), vehicle: saline 90 % of control | endpoint: mean survival time, dose: 100.0 mg/kg/injection, schedule: Q03DX003 (ip), vehicle: saline 110 % of control | [11] 100 % of control | endpoint: median survival time, dose: 25.0 mg/kg/injection, schedule: Q03HX024 (ip), vehicle: saline 120 % of control | endpoint: median survival time, dose: 100.0 mg/kg/injection, schedule: Q06HX016 (ip), vehicle: saline 99 % of control | endpoint: median survival time, dose: 200.0 mg/kg/injection, schedule: Q06HX016 (ip), vehicle: saline 99 % of control

CNC1CCCCCC1
inactive: [9] 101 % of control | [10] 101 % of control

CC(=O)N(c1nc(Cl)c2cc[nH]c2n1)C1OC(CO)C(O)C1O (stereo unspecified)
inactive: endpoint: mean survival time, dose: 12.5 mg/kg/injection, schedule: Q01DX005 (ip), vehicle: water 100 % of control | endpoint: mean survival time, dose: 25.0 mg/kg/injection, schedule: Q01DX005 (ip), vehicle: water 100 % of control | endpoint: mean survival time, dose: 50.0 mg/kg/injection, schedule: Q01DX005 (ip), vehicle: water 101 % of control | endpoint: mean survival time, dose: 100.0 mg/kg/injection, schedule: Q01DX005 (ip), vehicle: water 101 % of control | endpoint: mean survival time, dose: 200.0 mg/kg/injection, schedule: Q01DX005 (ip), vehicle: water 103 % of control

OCc1ccc[n+](CCc2c[nH]c3ccccc23)c1
inactive: [2] 104 % of control | [6] 95 % of control

O=C1CCCCCC2=NC12 (stereo unspecified)
inactive: endpoint: median survival time, dose: 6.25 mg/kg/injection, schedule: Q01DX009 (ip), vehicle: Klucel (hydroxypropylcellulose) (HPC) 97 % of control | endpoint: median survival time, dose: 12.5 mg/kg/injection, schedule: Q01DX009 (ip), vehicle: Klucel (hydroxypropylcellulose) (HPC) 102 % of control | endpoint: median survival time, dose: 25.0 mg/kg/injection, schedule: Q01DX009 (ip), vehicle: Klucel (hydroxypropylcellulose) (HPC) 105 % of control | endpoint: median survival time, dose: 50.0 mg/kg/injection, schedule: Q01DX009 (ip), vehicle: Klucel (hydroxypropylcellulose) (HPC) 111 % of control

CNC(=O)O/N=C(\CN=[N+]=[N-])C(C)(C)C
inactive: endpoint: median survival time, dose: 0.25 mg/kg/injection, schedule: Q01DX009 (ip), vehicle: saline 102 % of control | endpoint: median survival time, dose: 0.5 mg/kg/injection, schedule: Q01DX009 (ip), vehicle: saline 96 % of control | endpoint: median survival time, dose: 1.0 mg/kg/injection, schedule: Q01DX009 (ip), vehicle: saline 103 % of control

O=[N+]([O-])c1ccc(Sc2ccc(Br)cc2)cc1
inactive: endpoint: mean survival time, dose: 100.0 mg/kg/injection, schedule: Q01DX001 (ip), vehicle: saline with Tween-80 97 % of control | endpoint: mean survival time, dose: 200.0 mg/kg/injection, schedule: Q01DX001 (ip), vehicle: saline with Tween-80 106 % of control | endpoint: mean survival time, dose: 400.0 mg/kg/injection, schedule: Q01DX001 (ip), vehicle: saline with Tween-80 104 % of control

O=[N+]([O-])c1cc[n+]([O-])cc1
inactive: [9] 106 % of control

COc1cc2cc[n+]3c(C)c4ccc(OC)c(OC)c4cc3c2cc1OC (tested in a mixture with another compound)
inactive: endpoint: mean survival time, dose: 5.0 mg/kg/injection, schedule: Q01DX009 (ip), vehicle: saline 108 % of control | endpoint: mean survival time, dose: 60.0 mg/kg/injection, schedule: Q01DX009 (ip), vehicle: saline 121 % of control

CC12CCC(=O)C=C1CCCC2=O (stereo unspecified)
inactive: endpoint: mean survival time, dose: 50.0 mg/kg/injection, schedule: Q01DX009 (ip), vehicle: saline 98 % of control | endpoint: mean survival time, dose: 100.0 mg/kg/injection, schedule: Q01DX009 (ip), vehicle: saline 96 % of control
